What follows are compounds tested against T1, human β3 adrenergic receptor (Homo sapiens, UniProt P13945) (assay: cAMP (SPA) response in CHO cells transfected with human β3 adrenergic receptor). Settings: maximal response relative to maximal response of isoproterenol at 10^-5 M.
T1 construct: Full length β3 AR clones (402 amino acids) containing the last 6 amino acids of hβ3-AR are prepared; expressed in transfected cells; host or cells: CHO (Chinese hamster ovary) cells
Assay type: cell-based
Parameters: key: fraction of maximal isoproterenol (10^-5 M) response
Protocol: Binding to the receptors was measured in Chinese Hamster ovary (CHO) cells that were transfected with adrenergic receptors.
The corresponding primer sequences are described in Mantzoros, C. […] The four fragments are ligated into a pUC 18 plasmid (Gibco-BRL) and sequenced.
CHO cells were grown in 24-well tissue culture plates in Dulbecco's Modified Eagle Media with 10% fetal bovine serum, MEM non-essential amino acids, Penicillin-Streptompycin and Geneticin. On the day of test procedure, growth medium was replaced with preincubation media (Dulbecco's Modified Eagle, Media) and incubated for 30 minutes at 37° C. […] Test compounds were tested over a concentration range of 10^−9 M to 10^−5 M for β3 cells and 10^−8 to 10^−4 M for β1 and β2 transfected cells. Isoproterenol (10^−5 M) was used as an internal standard for comparison of activity. Cells were incubated at 37° C. on a rocker for 30 min with the β3 cells and 15 min for β1 and β2 cells. Incubation was stopped with the addition of 0.2N HCl and neutralized with 2.5N NaOH. The plates, containing the cells and neutralized media, were stored at −20 degrees celsius until ready to test for cAMP using the SPA test kit (Amersham).
Data Analysis and Results: Data collected from the SPA test procedure were analyzed as percent of the maximal isoproterenol response at 10^−5 M. Activity curves were plotted using the SAS statistical and graphics software.

T1 sequence (P13945 whole entry): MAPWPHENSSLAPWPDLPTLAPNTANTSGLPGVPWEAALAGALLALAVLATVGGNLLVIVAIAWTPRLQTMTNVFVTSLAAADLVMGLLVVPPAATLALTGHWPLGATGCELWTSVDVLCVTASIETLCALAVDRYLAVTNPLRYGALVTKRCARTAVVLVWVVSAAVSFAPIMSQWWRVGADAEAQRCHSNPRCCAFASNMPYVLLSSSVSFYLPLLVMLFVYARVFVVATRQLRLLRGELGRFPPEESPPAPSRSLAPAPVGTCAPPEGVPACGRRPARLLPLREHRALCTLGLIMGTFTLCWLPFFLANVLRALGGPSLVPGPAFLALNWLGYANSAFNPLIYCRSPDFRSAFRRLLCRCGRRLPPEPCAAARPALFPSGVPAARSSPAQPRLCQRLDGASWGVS

Row | Compound | IA(β3)
1 | COc1ccc(S(=O)(=O)Nc2ccc(N3CCC(NC[C@H](O)COc4ccc(O)c5c4CCC(=O)N5)CC3)cc2)cc1OC [Example 303, N-{4-[4-({(2S)-2-Hydroxy-3-[(8-hydroxy-2-oxo-1,2,3,4-tetrahydro-5-quinolinyl)oxy]-propyl}amino)-1-piperidinyl]phenyl}-3,4-dimethoxybenzenesulfonamide] | 0.96
2 | CCCCCCCCS(=O)(=O)Nc1ccc(N2CCC(NC[C@H](O)COc3ccc(O)cc3)CC2)cc1 [Example 304, N-[4-(4-{[(2S)-2-Hydroxy-3-(4-hydroxyphenoxy)propyl]amino}-1-piperidinyl)phenyl]-1-octanesulfonamide] | 0.35
3 | CC(=O)Nc1ccc(S(=O)(=O)Nc2ccc(N3CCC(NC[C@H](O)COc4ccc(O)c5c4CCC(=O)N5)CC3)cc2)cc1 [Example 307, N-[4-({4-[4-({(2S)-2-Hydroxy-3-[(8-hydroxy-2-oxo-1,2,3,4-tetrahydro-5-quinolin)oxy]propyl}amino)-1-piperidinyl]anilino}sulfonyl)phenyl]acetamide] | 1
4 | CCCCS(=O)(=O)Nc1ccc(N2CCC(NC[C@H](O)COc3ccc(O)c(NS(C)(=O)=O)c3)CC2)cc1 [Example 309, N-(4-{4-[((2S)-2-Hydroxy-3-{4-hydroxy-3-[(methylsulfonyl)amino]phenoxy}-propyl)amino]-1-piperidinyl}phenyl)-1-butanesulfonamide] | 1
5 | CCCCCCNC(=O)Nc1ccc(S(=O)(=O)Nc2ccc(N3CCC(NC[C@H](O)c4cccc(Cl)c4)CC3)cc2)cc1 [Example 311, N-[4-(4-{[(2R)-2-(3-Chlorophenyl)-2-hydroxyethyl]amino-}-piperidinyl)phenyl]-4-{[(hexylamino)carbonyl]amino}benzenesulfonamide] | 0.82
6 | CCOC(=O)Cc1ccc(S(=O)(=O)Nc2ccc(N3CCC(NC[C@H](O)COc4ccc(O)c(NS(C)(=O)=O)c4)CC3)cc2)cc1 [Example 312, Ethyl{4-[(4-}4-[((2S)-2hydroxy-3-{4-hydroxy-3-[(methylsulfonyl)amino]-phenoxy{propyl)amino]-1-piperidinyl}anilino)sulfonyl]phenyl}acetate] | 1.1
7 | COC(=O)COc1ccc(S(=O)(=O)Nc2ccc(N3CCC(NC[C@H](O)c4ccc(O)c(NS(C)(=O)=O)c4)CC3)cc2)cc1 [Example 313, Methyl{4-[(4-{4-[((2R)-2-hydroxy-2-{4-hydroxy-3-[(methylsulfonyl)amino]-phenyl}ethyl)amino]-1piperidinyl}anilino)sulfonyl]phenoxy}acetate] | 1
8 | CCOC(=O)c1ccc(S(=O)(=O)Nc2ccc(N3CCC(NC[C@H](O)c4ccc(O)c(NS(C)(=O)=O)c4)CC3)cc2)cc1 [Example 318, Ethyl4-[(4-{4-[((2R)-2-hydroxy-2-{4-hydroxy-3-[(methylsulfonyl)amino]phenyl}ethyl)-amino]-1-piperidinyl}anilino)sulfonyl]benzoate] | 1
9 | COC(=O)COc1ccc(S(=O)(=O)Nc2ccc(N3CCC(NC[C@H](O)c4ccc(Cl)c(NS(C)(=O)=O)c4)CC3)cc2)cc1 [Example 319, Methyl{4-[(4-{4-[((2R)-2-{4-chloro-3-[(methylsulfonyl)amino]phenyl}-2-hydroxyethyl)amino]-1-piperidinyl}anilino)sulfonyl]phenoxy}acetate] | 0.79
10 | CS(=O)(=O)Nc1cc([C@@H](O)CNC2CCN(c3ccc(NS(=O)(=O)c4ccsc4C(=O)O)cc3)CC2)ccc1O [Example 321, 3-[(4-{4-[((2R)-2-Hydroxy-2-{4-hydroxy-3-[(methylsulfonyl)amino]phenyl}ethyl)amino]-1-piperidinyl}anilino)sulfonyl]-2-thiophenecarboxylic acid] | 1.05
11 | CS(=O)(=O)Nc1cc([C@@H](O)CNC2CCN(c3ccc(NS(=O)(=O)CC(=O)OCc4ccccc4)cc3)CC2)ccc1O [Example 322, Benzyl[(4-{4-[((2R)-2-hydroxy-2-{4-hydroxy-3-[(methylsulfonyl)amino]phenyl}-ethyl)amino]-1-piperidinyl}anilino)sulfonyl]acetate] | 0.89
12 | CCCCN(c1ccc(N2CCC(NC[C@H](O)c3ccc(O)c(NS(C)(=O)=O)c3)CC2)cc1)S(=O)(=O)CC(=O)OCc1ccccc1 [Example 324, Benzyl[(butyl-4-{4-[((2R)-2-hydroxy-2-{4-hydroxy-3-[(methylsulfonyl)amino]phenyl}-ethyl)amino]-1-piperidinyl)anilino)sulfonyl}acetate] | 0.9
13 | O=c1[nH]c2cccc(OC[C@@H](O)CNC3CCN(c4ccc(NS(=O)(=O)c5ccc(Cl)c(Cl)c5)cc4)CC3)c2[nH]1 [Example 327, 3,4-Dichloro-N-{4-[4-({(2S)-2-hydroxy-3-[(2-oxo-2,3-dihydro-1H-benzimidazol-4-yl)oxy]propyl}amino)-1-piperidinyl]phenyl}benzenesulfonamide] | 0.86
14 | O=c1[nH]c2cccc(OC[C@@H](O)CNC3CCN(c4ccc(NS(=O)(=O)c5ccc(C(F)(F)F)cc5)cc4)CC3)c2[nH]1 [Example 328] | 0.89
15 | O=c1[nH]c2cccc(OC[C@@H](O)CNC3CCN(c4ccc(NS(=O)(=O)c5ccc(OC(F)(F)F)cc5)cc4)CC3)c2[nH]1 [Example 329, N-{4-[4-({(2S)-2-Hydroxy-3-[(2-oxo-2,3-dihydro-1H-benzimidazol-4-yl)oxy]propyl}-amino)-1-piperidinyl]phenyl}-4-(trifluoromethoxy)benzenesulfonamide] | 0.9
16 | COc1ccc(S(=O)(=O)Nc2ccc(N3CCC(NC[C@H](O)COc4cccc5[nH]c(=O)[nH]c45)CC3)cc2)cc1 [Example 330, N-{4-[4-({(2S)-2-Hydroxy-3-[(2-oxo-2,3-dihydro-1H-benzimidazol-4-yl)oxy]propyl}-amino)-1-piperidinyl]phenyl}-4-methoxybenzenesulfonamide] | 0.98

The next lines start with the values.

Row | IA(β3) | Compound
17 | 1 | CCCCCCNC(=O)Nc1ccc(S(=O)(=O)Nc2ccc(N3CCC(NC[C@H](O)COc4ccc(O)c5c4CCC(=O)N5)CC3)cc2)cc1 [Example 305, 4-{[(Hexylamino)carbonyl]amino}-N-{4-[4-({(2S)-2-hydroxy-3-[(8-hydroxy-2-oxo-1,2,3,4-tetrahydro-5-quinolinyl)oxy]propyl}amino)-1-piperidinyl]phenyl}benzenesulfonamide]
18 | 1.1 | CCCCS(=O)(=O)Nc1ccc(N2CCC(NC[C@H](O)COc3ccc(O)c4c3CCC(=O)N4)CC2)cc1 [Example 306, N-{4-[4-({(2S)-2-Hydroxy-3-[(8-hydroxy-2-oxo-1,2,3,4-tetrahydro-5-quinolinyl)oxy]-propyl}amino)-1-piperidinyl]phenyl}-1-butanesulfonamide]
19 | 1.4 | COc1ccc(S(=O)(=O)Nc2ccc(N3CCC(NC[C@H](O)COc4ccc(O)c(NS(C)(=O)=O)c4)CC3)cc2)cc1OC [Example 308, N-(4-{4-[((2S)-2-Hydroxy-3-{4-hydroxy-3-[(methylsulfonyl)amino]phenoxy}propyl)-amino]-1-piperidinyl}phenyl)-4-dimethoxybenzenesulfonamide]
20 | 1 | CCCCCCNC(=O)Nc1ccc(S(=O)(=O)Nc2ccc(N3CCC(NC[C@H](O)COc4ccc(O)c(NS(C)(=O)=O)c4)CC3)cc2)cc1 [Example 310]
21 | 1.2 | CCCCS(=O)(=O)Nc1ccc(N2CCC(NC[C@H](O)COc3ccc(O)c(NS(=O)(=O)c4ccccc4)c3)CC2)cc1 [Example 315, N-[5-({(2S)-3-[(1-{4-[(Butylsulfonyl)amino]phenyl}-4-piperidinyl)amino]-2-hydroxypropyl}oxy)-2-hydroxyphenyl]benzenesulfonamide]
22 | 0.97 | CS(=O)(=O)Nc1cc([C@@H](O)CNC2CCN(c3ccc(NS(=O)(=O)c4ccc(C(=O)O)cc4)cc3)CC2)ccc1O [Example 317, 4-[(4-{4-[((2R)-2-Hydroxy-2-{4-hydroxy-3-[(methylsulfonyl)amino]phenyl}ethyl)amino]-1-piperidinyl}anilino)sulfonyl]benzoic acid]
23 | 0.87 | COC(=O)c1sccc1S(=O)(=O)Nc1ccc(N2CCC(NC[C@H](O)c3ccc(O)c(NS(C)(=O)=O)c3)CC2)cc1 [Example 320, Methyl3-[(4-{4-[((2R)-2-hydroxy-2-{4-hydroxy-3-[(methylsulfonyl)amino]-phenyl}ethyl)amino]-1-piperidinyl}anilino)sulfonyl]-2-thiophenecarboxylate]
24 | 0.92 | CS(=O)(=O)Nc1cc([C@@H](O)CNC2CCN(c3ccc(NS(=O)(=O)CC(=O)O)cc3)CC2)ccc1O [Example 323, [(4-{4-[((2R)-2-Hydroxy-2-{4-hydroxy-3-[(methylsulfonyl)amino]phenyl}ethyl)amino]-1-piperidinyl}anilino)sulfonyl]acetic acid]
25 | 1.3 | CS(=O)(=O)Nc1cc([C@@H](O)CNC2CCN(c3ccc(NS(=O)(=O)c4cccnc4)cc3)CC2)ccc1O [Example 326, N-(4-{4-[((2R)-2-Hydroxy-2-{4-hydroxy-3-[(methylsulfonyl)amino]phenyl}ethyl)amino]-1-piperidinyl}phenyl)-3-pyridinesulfonamide]

— patent publication US7022716B2, “Cyclic amine phenyl beta-3 adrenergic receptor agonists” (Wyeth, priority 2000, dated 2006)
